Test results published in the kinase profiling compilation of Christmann-Franck et al. (2016).

Tests used:
Assay in all cases: KINOMEscan competition binding
Settings in all cases: compound 0.1 µM
[1] = target: RIOK2 (human) (UniProt Q9BVS4)
[2] = target: CDC2L2 (human) (UniProt Q9UQ88)
[3] = target: DCLK2 (human) (UniProt Q8N568)
[4] = target: EPHA5 (human) (UniProt P54756)
[5] = test system: ABL1 (human), P00519 [F317L]
[6] = target: STK16 (human) (UniProt O75716)
[7] = target: PRKCH (human) (UniProt P24723)
[8] = target: SRC (human) (UniProt P12931)
[9] = target: IKBKB (human) (UniProt O14920)
[10] = test system: FLT3 (human), P36888 [R834Q]
[11] = target: MAPK8 (human) (UniProt P45983)
[12] = target: MYO3A (human) (UniProt Q8NEV4)
[13] = target: CDK9 (human) (UniProt P50750)
CDK9 (human), sequence (P50750 whole entry, looked up): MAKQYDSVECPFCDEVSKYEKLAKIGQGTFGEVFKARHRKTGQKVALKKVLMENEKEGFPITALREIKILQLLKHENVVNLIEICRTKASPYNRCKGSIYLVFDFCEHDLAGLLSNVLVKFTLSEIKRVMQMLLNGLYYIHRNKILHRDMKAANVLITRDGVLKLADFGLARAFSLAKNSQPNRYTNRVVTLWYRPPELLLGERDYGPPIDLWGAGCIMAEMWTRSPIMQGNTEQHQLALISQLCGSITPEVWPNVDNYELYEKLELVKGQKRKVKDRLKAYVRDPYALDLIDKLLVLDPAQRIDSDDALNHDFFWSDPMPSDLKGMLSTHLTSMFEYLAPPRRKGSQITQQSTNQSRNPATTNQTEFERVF

[14] = target: SRPK2 (human) (UniProt P78362)
[15] = target: PDGFRA (human) (UniProt P16234)
[16] = target: MATK (human) (UniProt P42679)
[17] = target: PAK2 (human) (UniProt Q13177)
[18] = test system: KIT (human), P10721 [D816V]
[19] = test system: EGFR (human), P00533 [L858R]
[20] = target: NUAK1 (human) (UniProt O60285)
[21] = target: CDK4 CCND3 (human) (UniProt P11802+P30281)
CDK4 CCND3 (human), sequence (P11802 whole entry, looked up): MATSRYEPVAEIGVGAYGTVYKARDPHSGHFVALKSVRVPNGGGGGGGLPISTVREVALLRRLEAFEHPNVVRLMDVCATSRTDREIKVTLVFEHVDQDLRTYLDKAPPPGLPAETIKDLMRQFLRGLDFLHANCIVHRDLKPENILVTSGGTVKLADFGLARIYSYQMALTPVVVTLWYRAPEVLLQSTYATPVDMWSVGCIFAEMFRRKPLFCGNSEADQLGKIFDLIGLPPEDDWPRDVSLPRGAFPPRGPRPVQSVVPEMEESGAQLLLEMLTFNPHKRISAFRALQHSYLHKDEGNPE
CDK4 CCND3 (human), sequence (P30281 whole entry, looked up): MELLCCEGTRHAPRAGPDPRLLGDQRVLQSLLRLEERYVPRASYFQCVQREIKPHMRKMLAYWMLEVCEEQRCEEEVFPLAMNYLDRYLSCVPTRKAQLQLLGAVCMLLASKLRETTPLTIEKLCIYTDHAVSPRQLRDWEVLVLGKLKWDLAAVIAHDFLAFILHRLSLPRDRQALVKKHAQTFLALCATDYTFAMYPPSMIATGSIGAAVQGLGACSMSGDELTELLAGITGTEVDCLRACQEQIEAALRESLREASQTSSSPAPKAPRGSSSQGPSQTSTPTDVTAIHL

[22] = test system: ABL1 (human), P00519 [F317I]
ABL1 (human), P00519 [F317I], sequence (P00519 whole entry F317I, looked up): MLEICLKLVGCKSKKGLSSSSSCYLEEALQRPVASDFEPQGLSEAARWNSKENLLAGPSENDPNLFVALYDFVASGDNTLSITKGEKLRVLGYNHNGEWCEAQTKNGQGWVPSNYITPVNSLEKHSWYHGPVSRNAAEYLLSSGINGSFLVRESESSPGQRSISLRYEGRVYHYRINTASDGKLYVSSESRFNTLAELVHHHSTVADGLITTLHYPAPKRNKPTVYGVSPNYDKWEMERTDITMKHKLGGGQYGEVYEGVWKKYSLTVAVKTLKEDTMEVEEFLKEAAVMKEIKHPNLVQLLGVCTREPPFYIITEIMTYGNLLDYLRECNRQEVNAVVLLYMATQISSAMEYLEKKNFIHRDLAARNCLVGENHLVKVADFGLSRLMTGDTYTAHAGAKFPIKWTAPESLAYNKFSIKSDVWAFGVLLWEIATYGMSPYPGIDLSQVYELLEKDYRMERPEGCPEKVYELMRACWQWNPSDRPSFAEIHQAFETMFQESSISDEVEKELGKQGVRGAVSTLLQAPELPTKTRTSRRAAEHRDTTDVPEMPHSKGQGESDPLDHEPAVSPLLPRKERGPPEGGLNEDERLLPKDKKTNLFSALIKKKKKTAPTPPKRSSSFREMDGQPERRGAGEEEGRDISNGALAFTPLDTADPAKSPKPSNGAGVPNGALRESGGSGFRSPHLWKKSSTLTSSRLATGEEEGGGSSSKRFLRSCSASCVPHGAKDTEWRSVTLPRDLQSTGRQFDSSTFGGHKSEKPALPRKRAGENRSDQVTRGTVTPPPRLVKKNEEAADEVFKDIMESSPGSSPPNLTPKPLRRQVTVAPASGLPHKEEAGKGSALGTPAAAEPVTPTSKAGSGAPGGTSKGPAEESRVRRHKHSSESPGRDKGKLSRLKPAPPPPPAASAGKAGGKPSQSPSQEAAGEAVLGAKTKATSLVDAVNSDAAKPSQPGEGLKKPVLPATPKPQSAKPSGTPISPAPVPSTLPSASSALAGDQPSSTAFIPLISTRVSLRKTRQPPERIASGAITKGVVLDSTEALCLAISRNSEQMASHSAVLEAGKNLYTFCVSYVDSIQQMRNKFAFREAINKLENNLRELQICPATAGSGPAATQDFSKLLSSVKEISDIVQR

[23] = target: PIP5K1C (human) (UniProt O60331)
[24] = target: CLK1 (human) (UniProt P49759)
[25] = target: PIP5K1A (human) (UniProt Q99755)
[26] = target: LYN (human) (UniProt P07948)
[27] = target: FYN (human) (UniProt P06241)
[28] = target: MAP2K4 (human) (UniProt P45985)
[29] = target: NEK1 (human) (UniProt Q96PY6)
NEK1 (human), sequence (Q96PY6 whole entry, looked up): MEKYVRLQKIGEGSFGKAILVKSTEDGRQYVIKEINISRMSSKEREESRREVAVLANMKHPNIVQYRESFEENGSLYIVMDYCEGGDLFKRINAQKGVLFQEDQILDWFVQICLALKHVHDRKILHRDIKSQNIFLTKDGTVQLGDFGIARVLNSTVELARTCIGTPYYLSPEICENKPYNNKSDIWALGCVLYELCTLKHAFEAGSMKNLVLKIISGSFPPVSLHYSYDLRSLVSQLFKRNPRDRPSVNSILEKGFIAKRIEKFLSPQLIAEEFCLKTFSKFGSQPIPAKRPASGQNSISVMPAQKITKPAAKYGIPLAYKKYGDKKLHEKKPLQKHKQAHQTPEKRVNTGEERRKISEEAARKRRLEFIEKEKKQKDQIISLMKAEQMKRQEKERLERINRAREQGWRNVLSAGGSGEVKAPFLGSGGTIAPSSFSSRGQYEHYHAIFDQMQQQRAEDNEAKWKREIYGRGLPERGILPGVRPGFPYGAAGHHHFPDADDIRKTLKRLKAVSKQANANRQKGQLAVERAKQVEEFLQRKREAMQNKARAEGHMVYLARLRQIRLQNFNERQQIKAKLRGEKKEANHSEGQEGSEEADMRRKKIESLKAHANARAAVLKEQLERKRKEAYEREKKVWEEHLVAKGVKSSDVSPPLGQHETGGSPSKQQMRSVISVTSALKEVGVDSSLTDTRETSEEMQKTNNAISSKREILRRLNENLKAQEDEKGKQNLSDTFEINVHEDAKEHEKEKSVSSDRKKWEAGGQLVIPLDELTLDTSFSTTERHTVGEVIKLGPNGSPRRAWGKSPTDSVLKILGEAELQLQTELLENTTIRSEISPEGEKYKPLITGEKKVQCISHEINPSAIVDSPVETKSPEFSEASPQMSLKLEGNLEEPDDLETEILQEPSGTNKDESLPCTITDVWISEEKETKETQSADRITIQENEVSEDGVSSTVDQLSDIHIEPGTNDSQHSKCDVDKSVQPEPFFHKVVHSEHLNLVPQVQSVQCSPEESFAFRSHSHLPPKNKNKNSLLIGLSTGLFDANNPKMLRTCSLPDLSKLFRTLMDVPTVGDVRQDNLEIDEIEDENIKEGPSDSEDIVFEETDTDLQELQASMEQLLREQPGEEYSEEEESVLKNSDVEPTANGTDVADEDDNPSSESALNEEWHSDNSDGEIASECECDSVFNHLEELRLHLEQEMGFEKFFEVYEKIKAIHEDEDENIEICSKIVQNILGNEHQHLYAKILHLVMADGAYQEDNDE

[30] = target: WNK1 (human) (UniProt Q9H4A3)
[31] = target: JAK3 JH1 catalytic (human) (UniProt P52333)
[32] = target: MAPK13 (human) (UniProt O15264)
[33] = target: CSNK1A1L (human) (UniProt Q8N752)
[34] = target: CRK2 (P.falciparum) (UniProt P61075)
[35] = target: MST4 (human) (UniProt Q9P289)
[36] = target: RIOK3 (human) (UniProt O14730)
RIOK3 (human), sequence (O14730 whole entry, looked up): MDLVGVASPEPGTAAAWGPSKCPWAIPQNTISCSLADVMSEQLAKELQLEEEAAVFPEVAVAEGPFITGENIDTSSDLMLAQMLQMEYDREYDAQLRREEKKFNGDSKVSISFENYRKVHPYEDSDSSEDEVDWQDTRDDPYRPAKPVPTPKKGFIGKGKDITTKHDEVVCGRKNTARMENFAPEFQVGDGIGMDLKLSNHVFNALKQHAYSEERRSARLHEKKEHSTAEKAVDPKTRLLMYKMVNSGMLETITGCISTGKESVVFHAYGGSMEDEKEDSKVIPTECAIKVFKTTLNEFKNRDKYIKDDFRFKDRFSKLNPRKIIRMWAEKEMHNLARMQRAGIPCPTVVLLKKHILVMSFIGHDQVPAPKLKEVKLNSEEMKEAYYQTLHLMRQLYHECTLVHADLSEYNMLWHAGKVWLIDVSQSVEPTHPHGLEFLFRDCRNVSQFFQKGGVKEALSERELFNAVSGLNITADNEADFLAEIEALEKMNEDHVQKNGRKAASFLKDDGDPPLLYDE

[37] = test system: KIT (human), P10721 [D816H]
[38] = target: STK17A (human) (UniProt Q9UEE5)
[39] = target: CDK14 (human) (UniProt O94921)
[40] = target: CDK13 (human) (UniProt Q14004)

EPHA5 (human), sequence (P54756 whole entry, looked up): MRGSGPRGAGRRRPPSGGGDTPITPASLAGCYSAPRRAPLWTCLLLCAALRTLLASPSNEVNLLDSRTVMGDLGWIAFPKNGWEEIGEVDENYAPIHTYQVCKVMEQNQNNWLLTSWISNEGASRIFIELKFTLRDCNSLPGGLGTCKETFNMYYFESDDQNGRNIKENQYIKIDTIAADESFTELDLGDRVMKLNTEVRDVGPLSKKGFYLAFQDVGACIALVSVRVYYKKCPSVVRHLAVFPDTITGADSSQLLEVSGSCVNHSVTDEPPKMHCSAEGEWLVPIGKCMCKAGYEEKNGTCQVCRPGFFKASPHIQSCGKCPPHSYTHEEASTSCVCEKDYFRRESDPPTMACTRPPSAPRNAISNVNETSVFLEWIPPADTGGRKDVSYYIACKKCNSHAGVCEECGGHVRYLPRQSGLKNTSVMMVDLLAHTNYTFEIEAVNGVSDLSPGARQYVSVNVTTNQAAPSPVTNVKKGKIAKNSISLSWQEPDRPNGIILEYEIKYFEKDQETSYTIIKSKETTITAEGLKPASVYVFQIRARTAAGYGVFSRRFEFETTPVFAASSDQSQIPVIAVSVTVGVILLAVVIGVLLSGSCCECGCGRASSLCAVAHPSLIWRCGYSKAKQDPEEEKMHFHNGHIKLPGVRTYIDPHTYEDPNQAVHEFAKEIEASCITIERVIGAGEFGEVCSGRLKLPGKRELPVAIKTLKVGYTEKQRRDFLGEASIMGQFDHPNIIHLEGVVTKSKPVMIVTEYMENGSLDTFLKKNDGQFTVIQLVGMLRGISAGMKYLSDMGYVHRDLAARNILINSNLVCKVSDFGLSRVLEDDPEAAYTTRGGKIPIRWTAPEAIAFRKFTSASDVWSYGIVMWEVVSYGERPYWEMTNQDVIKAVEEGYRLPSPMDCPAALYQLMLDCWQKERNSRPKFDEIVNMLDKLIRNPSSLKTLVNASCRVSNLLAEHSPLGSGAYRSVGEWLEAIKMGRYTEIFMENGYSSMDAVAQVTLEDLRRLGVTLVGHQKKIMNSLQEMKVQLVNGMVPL
ABL1 (human), P00519 [F317L], sequence (P00519 whole entry F317L, looked up): as the sequence (P00519 whole entry F317I, looked up) above, with I317L counted along it

## CCc1ccc(C(=O)Nc2cc(CN3CCN(C)CC3)cc(C(F)(F)F)c2)cc1C#Cc1cnc2ccnn2c1
[1]
  kinase still bound, per cent of control: 100%
[2]
  kinase still bound, per cent of control: 100%
[3]
  kinase still bound, per cent of control: 100%
[4]
  kinase still bound, per cent of control: 100%
[5]
  kinase still bound, per cent of control: 86%
[6]
  kinase still bound, per cent of control: 71%
[7]
  kinase still bound, per cent of control: 100%
[8]
  kinase still bound, per cent of control: 76%
[9]
  kinase still bound, per cent of control: 97%
[10]
  kinase still bound, per cent of control: 100%
[11]
  kinase still bound, per cent of control: 100%
[12]
  kinase still bound, per cent of control: 100%
[13]
  kinase still bound, per cent of control: 98%
[14]
  kinase still bound, per cent of control: 75%
[15]
  kinase still bound, per cent of control: 79%
[16]
  kinase still bound, per cent of control: 100%
[17]
  kinase still bound, per cent of control: 76%
[18]
  kinase still bound, per cent of control: 81%
[19]
  kinase still bound, per cent of control: 100%
[20]
  kinase still bound, per cent of control: 100%
[21]
  kinase still bound, per cent of control: 100%
[22]
  kinase still bound, per cent of control: 83%
[23]
  kinase still bound, per cent of control: 96%
[24]
  kinase still bound, per cent of control: 71%
[25]
  kinase still bound, per cent of control: 100%
[26]
  kinase still bound, per cent of control: 35%
[27]
  kinase still bound, per cent of control: 72%
[28]
  kinase still bound, per cent of control: 100%
[29]
  kinase still bound, per cent of control: 93%
[30]
  kinase still bound, per cent of control: 100%
[31]
  kinase still bound, per cent of control: 58%
[32]
  kinase still bound, per cent of control: 69%
[33]
  kinase still bound, per cent of control: 83%
[34]
  kinase still bound, per cent of control: 100%
[35]
  kinase still bound, per cent of control: 100%
[36]
  kinase still bound, per cent of control: 64%
[37]
  kinase still bound, per cent of control: 81%
[38]
  kinase still bound, per cent of control: 100%
[39]
  kinase still bound, per cent of control: 81%
[40]
  kinase still bound, per cent of control: 71%
